Source: patent publication US11873298B2, “Compounds and uses thereof” (JANSSEN PHARMACEUTICA NV, priority 2017, dated 2024)
pIC50: −log10 of the molar value. “And” between values parts separate entries of the source, which are not always exact repeats. Equal entries are not always repeated.

Columns and labels:
Type in all cases: cell-based
SCD5 = target: T1, SCD5 (Homo sapiens, UniProt Q86SK9); test: Growth inhibition of humanized yeast strain expressing SCD5 as sole desaturase; settings: humanized yeast strain expressing SCD5
T1 construct: host or cells: S. cerevisiae ole1Δ strain (W303 pdr1Δ pdr3Δ background), plasmid pRS316 with TDH3 promoter and CYC1 terminator
T1 sequence (Q86SK9 1-330): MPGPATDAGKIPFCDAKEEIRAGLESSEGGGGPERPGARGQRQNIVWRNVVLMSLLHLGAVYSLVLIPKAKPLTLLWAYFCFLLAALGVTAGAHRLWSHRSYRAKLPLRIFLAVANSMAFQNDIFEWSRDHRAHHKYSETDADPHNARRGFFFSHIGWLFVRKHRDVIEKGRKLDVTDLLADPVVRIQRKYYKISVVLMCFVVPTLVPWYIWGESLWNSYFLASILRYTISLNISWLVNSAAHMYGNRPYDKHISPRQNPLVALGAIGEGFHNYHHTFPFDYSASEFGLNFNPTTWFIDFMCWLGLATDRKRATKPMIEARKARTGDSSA
In short: (§1)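 Yeast ole1Δ strain (W303 pdr1Δ pdr3Δ background) carrying plasmid-borne Ole1, SCD1 or SCD5 as sole desaturase was grown in uracil-lacking media, pre-cultured in raffinose for 6 h, then seeded in galactose medium with compound in DMSO. Growth was read as OD600 after 30° C. incubation: 24 h for Ole1, 40 h for SCD1/SCD5.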

Ole1 = target: T2, Ole1 (Saccharomyces cerevisiae, UniProt P21147); test: Growth inhibition of yeast strain expressing Ole1 as sole desaturase; settings: yeast strain expressing Ole1 as sole desaturase
T2 construct: expressed in transfected cells; host or cells: S. cerevisiae ole1Δ strain (W303 pdr1Δ pdr3Δ background), plasmid pRS316 with TDH3 promoter and CYC1 terminator
T2 sequence (P21147 1-510): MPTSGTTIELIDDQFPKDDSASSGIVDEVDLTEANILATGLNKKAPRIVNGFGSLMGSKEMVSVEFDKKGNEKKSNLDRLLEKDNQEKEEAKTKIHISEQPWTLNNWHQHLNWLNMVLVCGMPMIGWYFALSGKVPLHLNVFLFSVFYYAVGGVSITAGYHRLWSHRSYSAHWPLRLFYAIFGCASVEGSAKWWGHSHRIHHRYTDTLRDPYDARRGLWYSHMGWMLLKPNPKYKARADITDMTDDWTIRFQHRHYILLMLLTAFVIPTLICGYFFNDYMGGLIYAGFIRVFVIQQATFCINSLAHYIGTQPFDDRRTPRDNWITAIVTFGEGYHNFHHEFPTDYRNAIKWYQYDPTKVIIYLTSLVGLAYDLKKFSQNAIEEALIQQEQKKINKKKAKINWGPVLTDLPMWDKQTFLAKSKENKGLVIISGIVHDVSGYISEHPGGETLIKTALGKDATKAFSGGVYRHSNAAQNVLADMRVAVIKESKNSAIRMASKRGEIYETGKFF
In short: as §1

SCD1 = target: T3, SCD1 (Homo sapiens, UniProt O00767); test: Growth inhibition of humanized yeast strain expressing SCD1 as sole desaturase; settings: humanized yeast strain expressing SCD1
T3 construct: host or cells: S. cerevisiae ole1Δ strain (W303 pdr1Δ pdr3Δ background), plasmid pRS316 with TDH3 promoter and CYC1 terminator
T3 sequence (O00767 1-359): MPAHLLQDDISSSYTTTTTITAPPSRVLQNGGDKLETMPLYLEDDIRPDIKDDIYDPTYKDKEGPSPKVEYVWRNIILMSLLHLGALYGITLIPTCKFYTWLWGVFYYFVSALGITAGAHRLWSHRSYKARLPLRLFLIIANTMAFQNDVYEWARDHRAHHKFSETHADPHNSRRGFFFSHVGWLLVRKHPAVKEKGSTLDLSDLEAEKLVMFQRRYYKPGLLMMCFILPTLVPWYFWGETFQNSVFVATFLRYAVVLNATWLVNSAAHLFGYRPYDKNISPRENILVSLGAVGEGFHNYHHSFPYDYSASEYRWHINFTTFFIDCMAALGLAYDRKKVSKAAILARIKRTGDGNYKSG
In short: as §1

Row | SMILES | pIC50 (SCD5) | SCD5 % Max Inhibition (SCD5) | pIC50 (Ole1) | OLE1 % Max Inhibition (Ole1) | SCD1 % Max Inhibition (SCD1) | pIC50 (SCD1)
1 | Cc1nn(C)c2cc(-c3noc(N4CCN(C(=O)c5ccccc5)CC4)n3)ccc12 [Compound 261] | < 4.35 | 82.31% | < 4.35 | 94.41% | 73.42% | 
2 | Cc1nn(C(C)C)c2cc(-c3noc(C4CCN(C(=O)CNC(=O)c5ccccc5)CC4)n3)ccc12 [Compound 281] | < 4.35 | 18.03% and 12.39% | 4.47 and < 4.35 | 60.23% and 32.09% | 84.97% and 68.90% | ≤ 4.35
3 | Cc1nn(C)c2cc(-c3noc(C4CCN(C(=O)N5CCOCC5)CC4)n3)ccc12 [Compound 311] | < 4.35 | 60.5% | < 4.35 | 90.8% | 72.9% | 
4 | Cc1c2ccc(-c3noc(C4CCN(C(=O)CNC(=O)c5ccccc5)CC4)n3)cc2nn1C(C)C [Compound 289] | < 4.35 | 77.71% | < 4.35 | 45.87% | 62.01% | 
5 | Cc1nn(C)c2cc(-c3noc(C4CCN(C(=O)CC5CC5)CC4)n3)ccc12 [Compound 264] | < 4.35 | 7.97% | < 4.35 | 15.52% | 56.37% | 4.39
6 | CCn1nc(C)c2ccc(-c3noc(C4CCN(C(=O)CNC(=O)c5ccccc5)CC4)n3)cc21 [Compound 299] | < 4.35 | 30.1% and 22.61% | < 4.35 | 17.5% and 13.58% | 89.6% and 62.80% | ≤ 4.35
7 | Cc1nn(C)c2cc(-c3noc(C4CCN(C(=O)C5CC(=O)N(c6ccccc6C#N)C5)CC4)n3)ccc12 (stereo not drawn) [Compound 170] | < 4.35 | 85.13% | 4.39 | 67.97% | 103.19% | < 4.35
8 | O=C([C@H]1CC(=O)N(c2ccccc2)C1)N1CCC(c2nc(N3CC4(COC4)C3)no2)CC1 [Compound 316] |  | 80% | ≤ 4.35 | 89.26% | 69.01% | ≤ 4.35
9 | COc1cc(OC)cc(-c2noc(C3CCN(C(=O)CNC(=O)c4ccccc4)CC3)n2)c1 [Compound 187] | < 4.35 | 2.91% | < 4.35 | 97.42% | 72.13% | < 4.35
10 | O=C(CN1Cc2ccccc2C1=O)N1CCC(c2nc(-c3ccc4c(c3)COC4)no2)CC1 [Compound 223] | 4.39 | 67.37% | < 4.35 | 2.22% | 68.23% | 4.39
11 | Cc1nn(C)c2cc(-c3noc(C4CCN(C(=O)CN5Cc6ccccc6C5=O)CC4)n3)cnc12 [Compound 200] | 4.39 | 64.72% | < 4.35 | 2.69% | 79.67% | < 4.35
12 | CCOc1ccc(-c2noc(N3CCC(C(=O)N4CCO[C@H](c5ccccc5)C4)CC3)n2)cc1OC [Compound 218] | < 4.35 | 25.15% | < 4.35 | 4.63% | 48.31% | < 4.35
13 | COc1cccc(-c2noc(C3CC(=O)N(c4ccc(C)c(C)c4)C3)n2)c1 (stereo not drawn) [Compound 489] | 4.39 | 61.11% | < 4.35 | 94.30% | 68.84% | 
14 | Cc1nn(C)c2cc(-c3noc(C4CCN(C(=O)CN5Cc6ccccc6C5=O)CC4)n3)ccc12 [Compound 165] | < 4.35 | 80.23% | < 4.35 | 2.01% | 94.44% | < 4.35
15 | CCOc1ccc(-c2noc(C3CCN(C(=O)[C@H]4CCN(C(=O)c5ccccc5)C4)CC3)n2)cc1OC [Compound 234] | < 4.35 | 76.83% | < 4.35 | 84.80% | 68.91% | < 4.35
16 | COC(=O)N1CCC(c2nc(-c3ccc4c(C)nn(C)c4c3)no2)CC1 [Compound 273] | < 4.35 | 55.0% | < 4.35 | 78.7% | 67.9% | 
17 | CCOc1ccc(-c2noc(C3CCN(C(=O)C4CN(c5ccccc5)C(=O)CO4)CC3)n2)cc1OC (stereo not drawn) [Compound 235] | < 4.35 | 87.47% | < 4.35 | 84.04% | 74.46% | < 4.35
18 | COc1ccc(-c2nccc(C3CCN(C(=O)CNC(=O)c4ccccc4)CC3)n2)cc1OC [Compound 221] | < 4.35 | 93.18% | < 4.35 | 113.54% | 100.56% | < 4.35
19 | Cc1nn(C)c2cc(-c3nsc(C4CCN(C(=O)CNC(=O)c5ccccc5)CC4)n3)ccc12 [Compound 250] | < 4.35 | 14.48% | < 4.35 | 4.41% | 86.09% | 
20 | CCOc1ccc(-c2noc(N3CCN(C(=O)CN4Cc5ccccc5C4=O)CC3)n2)cc1OC [Compound 225] | < 4.35 | 88.95% | < 4.35 | 20.97% | 94.06% | < 4.35
21 | O=C(C1CC(=O)N(c2cccc(Cl)c2)C1)N1CCC(c2nc(N3CCC4(CC3)COC4)no2)CC1 (stereo not drawn) [Compound 325] | < 4.35 | 67.2% | < 4.35 | 79.2% | 73.7% | < 4.35
22 | CCN1C(=O)COc2ccc(-c3nc(C(C)c4ccccc4)no3)cc21 (stereo not drawn) [Compound 160] | 4.61 | 28.51% | 4.44 | 71.55% | 63.44% | 4.39
23 | Cc1nn(C)c2cc(-c3noc(C4CCN(C(=O)[C@H]5CC(=O)N(c6ccc(C#N)cc6)C5)CC4)n3)ccc12 [Compound 307] | < 4.35 | 52.5% and 27.45% | < 4.35 | 7.8% and 4.08% | 78.2% and 70.58% | ≤ 4.35
24 | Cc1nn(C)c2cc(-c3noc(C4CCN(C(=O)c5cc(F)ccc5C(F)(F)F)CC4)n3)ccc12 [Compound 292] | < 4.35 | 10.2% | < 4.35 | 13.6% | 9.5% | 
25 | Cc1nn(C)c2cc(-c3noc(C4CCN(C(=O)CNC(=O)c5ccccc5C(F)(F)F)CC4)n3)ccc12 [Compound 271] | < 4.35 | 53.6% | < 4.35 | 11.7% | 67.9% | 
26 | CC(C)n1ncc2ccc(-c3noc(C4CCN(C(=O)CNC(=O)c5ccccc5)CC4)n3)cc21 [Compound 171] | < 4.35 | −0.14% | < 4.35 | 6.77% | 74.21% | 4.39
